{"source": "patent US7160555B2", "about": "“Immediate release medicinal compositions for oral use” (Kissei Pharmaceutical Co., Ltd., priority 1999, dated 2007)", "origin": "cited, not measured here", "tested_on": "blood sugar", "settings": "Japanese Patent Laid-Open No. 356459/1992"}
{"substance": "(2S)-2-benzyl-3-(cis-hexahydro-2-iso-indolinylcarbonyl)propionic acid", "values": [{"measurement": "lowering action of blood sugar", "result": "remarkable lowering action of blood sugar"}]}
